Measured values published in patent US7598382B2, “Aryl substituted imidazoquinolines” (Coley Pharmaceutical Group, Inc., priority 2002, dated 2009).

Row | SMILES | melting point
1 | CCCc1nc2c(N)nc3cc(/C=C/c4cccnc4)ccc3c2n1CC(C)C (hydrate or solvate) [Example 446, (E)-1-(2-Methylpropyl)-2-propyl-7-[2-(pyridin-3-yl)vinyl]-1H-imidazo[4,5-c]quinolin-4-amine] | 190 to 192 °C
2 | CCOCc1nc2c(N)nc3cc(-c4cccc(C(=O)N5CCOCC5)c4)ccc3c2n1CC1CCOCC1 (hydrate or solvate) [Example 477, {3-[4-Amino-2-ethoxymethyl-1-(tetrahydropyran-4-ylmethyl)-1H-imidazo[4,5-c]quinolin-7-yl]phenyl}morpholin-4-ylmethanone] | 125 to 128 °C
3 | CCOCc1nc2c(N)nc3cc(-c4cccnc4)ccc3c2n1CC1CCOCC1 (hydrate or solvate) [Example 479, 2-Ethoxymethyl-7-(pyridin-3-yl)-1-(tetrahydropyran-4-ylmethyl)-1H-imidazo[4,5-c]quinolin-4-amine] | 116 to 121 °C
4 | CC(C)Cn1cnc2c(N)nc3ccc(-c4ccc(C(C)(C)C)cc4)cc3c21 [Example 11, 8-(4-tert-Butylphenyl)-1-isobutyl-1H-imidazo[4,5-c]quinolin-4-amine] | > 250 °C
5 | CC(C)Cn1cnc2c(N)nc3ccc(-c4ccsc4)cc3c21 [Example 12, 1-Isobutyl-8-(thiophen-3-yl)-1H-imidazo[4,5-c]quinolin-4-amine] | 235 to 236 °C
6 | COc1ccc(-c2ccc3nc(N)c4ncn(CC(C)C)c4c3c2)c(OC)c1 [Example 13, 8-(2,4-Dimethoxyphenyl)-1-isobutyl-1H-imidazo[4,5-c]quinolin-4-amine] | 223 to 227 °C
7 | CCc1nc2c(N)nc3ccc(-c4cccnc4)cc3c2n1CC(C)C [Example 17, 2-Ethyl-1-isobutyl-8-(pyridin-3-yl)-1H-imidazo[4,5-c]quinolin-4-amine] | > 250 °C
8 | CCCCn1c(COCC)nc2c(N)nc3ccc(-c4ccccc4)cc3c21 [Example 18, 1-Butyl-2-ethoxymethyl-8-phenyl-1H-imidazo[4,5-c]quinolin-4-amine] | 186 to 187 °C
9 | CCCCn1c(COCC)nc2c(N)nc3ccc(-c4cccnc4)cc3c21 [Example 19, 1-Butyl-2-ethoxymethyl-8-(pyridin-3-yl)-1H-imidazo[4,5-c]quinolin-4-amine] | 220 to 222 °C
10 | CCOCc1nc2c(N)nc3cc(-c4cncc(CO)c4)ccc3c2n1CC(C)C [Example 115, {5-[4-Amino-2-ethoxymethyl-1-(2-methylpropyl)-1H-imidazo[4,5-c]quinolin-7-yl]pyridin-3-yl}methanol] | 211 to 212 °C
11 | CCOCc1nc2c(N)nc3cc(CCc4ccc(C(F)(F)F)cc4)ccc3c2n1CC(C)C [Example 117, 2-Ethoxymethyl-1-(2-methylpropyl)-7-{2-[(trifluoromethyl)phenyl]ethyl}-1H-imidazo[4,5-c]quinolin-4-amine] | 175.5 to 178 °C
12 | CCc1ccc(-c2ccc3nc(N)c4ncn(CC(C)C)c4c3c2)cc1 [Example 118, 8-(4-Ethylphenyl)-1-(2-methylpropyl)-1H-imidazo[4,5-c]quinolin-4-amine] | 238 to 240 °C
13 | Cc1ccc(-c2ccc3nc(N)c4ncn(CC(C)C)c4c3c2)cc1C [Example 119, 8-(3,4-Dimethylphenyl)-1-(2-methylpropyl)-1H-imidazo[4,5-c]quinolin-4-amine] | 204 to 205 °C
14 | CC(=O)c1cccc(-c2ccc3nc(N)c4ncn(CC(C)C)c4c3c2)c1 [Example 120, 1-{3-[4-Amino-1-(2-methylpropyl)-1H-imidazo[4,5-c]quinolin-8-yl]phenyl}ethanone] | 217 to 218 °C
15 | CC(C)Cn1cnc2c(N)nc3ccc(-c4csc5ccccc45)cc3c21 [Example 121, 8-Benzo[b]thiophen-3-yl-1-(2-methylpropyl)-1H-imidazo[4,5-c]quinolin-4-amine] | 247 to 248 °C
16 | CC(C)Cn1cnc2c(N)nc3ccc(C=Cc4ccccc4)cc3c21 [Example 122, 1-(2-Methylpropyl)-8-styryl-1H-imidazo[4,5-c]quinolin-4-amine] | 228 to 230 °C
17 | CC(C)Cn1cnc2c(N)nc3ccc(CCc4ccccc4)cc3c21 [Example 123, 1-(2-Methylpropyl)-8-phenethyl-1H-imidazo[4,5-c]quinolin-4-amine] | 175 to 178 °C
18 | Cc1nc2c(N)nc3cc(-c4ccccc4)ccc3c2n1CCCS(C)(=O)=O [Example 124, 2-Methyl-1-(3-methanesulfonylpropyl)-7-phenyl-1H-imidazo[4,5-c]quinolin-4-amine] | 203 to 205 °C
19 | CCOCc1nc2c(N)nc3cc(-c4ccsc4)ccc3c2n1CC(C)(C)O [Example 125, 1-[4-Amino-2-ethoxymethyl-7-(thiophen-3-yl)-1H-imidazo[4,5-c]quinolin-1-yl]-2-methylpropan-2-ol] | 204 to 205 °C
20 | CCOCc1nc2c(N)nc3cc(-c4cccnc4)ccc3c2n1CC(C)(C)O [Example 126, 1-[4-Amino-2-ethoxymethyl-7-(pyridin-3-yl)-1H-imidazo[4,5-c]quinolin-1-yl]-2-methylpropan-2-ol] | 197 to 199 °C

The next lines start with the values.

Row | melting point | SMILES
21 | 229 to 230 °C | CCCCc1nc2c(N)nc3cc(-c4ccsc4)ccc3c2n1CC(C)C [Example 1, 2-Butyl-1-isobutyl-7-(thiophen-3-yl)-1H-imidazo[4,5-c]quinolin-4-amine]
22 | > 250 °C | CCCCc1nc2c(N)nc3cc(-c4ccccc4)ccc3c2n1CC(C)C [Example 2, 2-Butyl-1-isobutyl-7-phenyl-1H-imidazo[4,5-c]quinolin-4-amine]
23 | 187 to 189 °C | CCCCc1nc2c(N)nc3cc(-c4ccc(OC)cc4OC)ccc3c2n1CC(C)C [Example 3, 2-Butyl-7-(2,4-dimethoxyphenyl)-1-isobutyl-1H-imidazo[4,5-c]quinolin-4-amine]
24 | 219 to 220 °C | CCCCc1nc2c(N)nc3cc(-c4ccc(C(C)(C)C)cc4)ccc3c2n1CC(C)C [Example 4, 2-Butyl-7-(4-tert-butylphenyl)-1-isobutyl-1H-imidazo[4,5-c]quinolin-4-amine]
25 | 194 to 197 °C | CCCCc1nc2c(N)nc3cc(-c4ccc(OCCC)cc4)ccc3c2n1CC(C)C [Example 5, 2-Butyl-1-isobutyl-7-(4-propoxyphenyl)-1H-imidazo[4,5-c]quinolin-4-amine]
26 | 174.5 to 176 °C | CCCCc1nc2c(N)nc3cc(-c4ccccc4OCCC)ccc3c2n1CC(C)C [Example 6, 2-Butyl-1-isobutyl-7-(2-propoxyphenyl)-1H-imidazo[4,5-c]quinolin-4-amine]
27 | 215 to 216 °C | CCCCc1nc2c(N)nc3cc(/C=C/c4ccccc4)ccc3c2n1CC(C)C [Example 7, 2-Butyl-1-isobutyl-7-[(E)-2-phenylethenyl]-1H-imidazo[4,5-c]quinolin-4-amine]
28 | 181 to 182 °C | CCCCc1nc2c(N)nc3cc(CCc4ccccc4)ccc3c2n1CC(C)C [Example 8, 2-Butyl-1-isobutyl-7-phenethyl-1H-imidazo[4,5-c]quinolin-4-amine]
29 | 187 to 189 °C | CCOCc1nc2c(N)nc3cc(-c4ccsc4)ccc3c2n1CC(C)C [Example 9, 2-Ethoxymethyl-1-isobutyl-7-(thiophen-3-yl)-1H-imidazo[4,5-c]quinolin-4-amine]
30 | 214 to 216 °C | CCCCc1nc2c(N)nc3cc(-c4ccccc4)ccc3c2n1CCCS(C)(=O)=O [Example 10, 2-Butyl-1-(3-methanesulfonylpropyl)-7-phenyl-1H-imidazo[4,5-c]quinolin-4-amine]
31 | 233 to 235 °C | CCc1nc2c(N)nc3ccc(-c4ccccc4)cc3c2n1CC(C)C [Example 16, 2-Ethyl-1-isobutyl-8-phenyl-1H-imidazo[4,5-c]quinolin-4-amine]
32 | 140 to 141 °C | CCCOc1cccc(-c2ccc3c(c2)nc(N)c2nc(COCC)n(CC(C)C)c23)c1 [Example 106, 2-Ethoxymethyl-1-(2-methylpropyl)-7-(3-propoxyphenyl)-1H-imidazo[4,5-c]quinolin-4-amine]
33 | 209 to 210 °C | CCCOc1ccc(-c2ccc3c(c2)nc(N)c2nc(COCC)n(CC(C)C)c23)cc1 [Example 107, 2-Ethoxymethyl-1-(2-methylpropyl)-7-(4-propoxyphenyl)-1H-imidazo[4,5-c]quinolin-4-amine]
34 | 176.5 to 178 °C | CCOCc1nc2c(N)nc3cc(-c4ccccc4)ccc3c2n1CC(C)C [Example 108, 2-Ethoxymethyl-1-(2-methylpropyl)-7-phenyl-1H-imidazo[4,5-c]quinolin-4-amine]
35 | 168 to 169 °C | CCCOc1ccccc1-c1ccc2c(c1)nc(N)c1nc(COCC)n(CC(C)C)c12 [Example 109, 2-Ethoxymethyl-1-(2-methylpropyl)-7-(2-propoxyphenyl)-1H-imidazo[4,5-c]quinolin-4-amine]
36 | 211 to 212 °C | CCOCc1nc2c(N)nc3cc(-c4ccc(C#N)cc4)ccc3c2n1CC(C)C [Example 110, 4-(4-Amino-2-ethoxymethyl-1-(2-methylpropyl)-1H-imidazo[4,5-c]quinolin-7-yl)benzonitrile]
37 | 210 to 211 °C | CCOCc1nc2c(N)nc3cc(-c4cccc(C#N)c4)ccc3c2n1CC(C)C [Example 111, 3-(4-Amino-2-ethoxymethyl-1-(2-methylpropyl)-1H-imidazo[4,5-c]quinolin-7-yl)benzonitrile]
38 | 179.5 to 181.5 °C | CCOCc1nc2c(N)nc3cc(-c4cccnc4)ccc3c2n1CC(C)C [Example 113, 2-Ethoxymethyl-1-(2-methylpropyl)-7-(pyridin-3-yl)-1H-imidazo[4,5-c]quinolin-4-amine]
39 | 214.5 to 215.5 °C | CCOCc1nc2c(N)nc3cc(-c4ccc(N(C)C)cc4)ccc3c2n1CC(C)C [Example 114, 7-(4-Dimethylaminophenyl)-2-ethoxymethyl-1-(2-methylpropyl)-1H-imidazo[4,5-c]quinolin-4-amine]
40 | 211 to 213 °C | CCOCc1nc2c(N)nc3cc(-c4ccncc4)ccc3c2n1CC(C)C [Example 116, 2-Ethoxymethyl-1-(2-methylpropyl)-(7-pyridin-4-yl)-1H-imidazo[4,5-c]quinolin-4-amine]
